Data from patent US10252984B2, “Inhibiting G protein coupled receptor 6 kinase polypeptides” (Mayo Foundation for Medical Education and Research, priority 2011, dated 2019).

Biological target: GRK6, recombinant full-length GST-tagged human protein (Homo sapiens (Human), UniProt P43250)
Assay: GRK6 LabChip microfluidic mobility shift kinase assay
Assay type: biochemical
Conditions: for IC50 values of model inhibitors: at ATP Km, 12-pt dose response, duplicates, values only in FIG. 1
Description: […] All determinations were performed in duplicates. To obtain the IC50 values and the Hill coefficient, the 4-parameter logistic equation was fitted to the data by non-linear regression using XLFit software.

[1] = 8-point concentration-response, top concentration 60 μM, ATP 12 μM (Km)
[2] = GRK6 polypeptide inhibition assay, class symbols

GRK6, recombinant full-length GST-tagged human protein, sequence (P43250 whole entry): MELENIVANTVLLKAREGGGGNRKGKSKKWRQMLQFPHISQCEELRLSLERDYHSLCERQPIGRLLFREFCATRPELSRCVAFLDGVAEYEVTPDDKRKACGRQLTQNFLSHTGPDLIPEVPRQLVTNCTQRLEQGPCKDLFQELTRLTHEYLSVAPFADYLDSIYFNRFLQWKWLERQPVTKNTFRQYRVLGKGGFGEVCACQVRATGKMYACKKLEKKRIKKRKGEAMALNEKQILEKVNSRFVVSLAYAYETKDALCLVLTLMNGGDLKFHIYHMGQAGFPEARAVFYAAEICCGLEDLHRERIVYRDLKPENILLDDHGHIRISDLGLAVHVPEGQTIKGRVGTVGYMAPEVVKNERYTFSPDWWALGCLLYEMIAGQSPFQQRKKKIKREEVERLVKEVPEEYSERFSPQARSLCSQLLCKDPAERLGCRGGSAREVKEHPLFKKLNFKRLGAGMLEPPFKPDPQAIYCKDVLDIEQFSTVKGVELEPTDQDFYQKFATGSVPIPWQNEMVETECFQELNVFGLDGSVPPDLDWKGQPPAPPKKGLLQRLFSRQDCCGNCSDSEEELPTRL

Row | SMILES | IC50 [1] | other results
1 | Oc1ccc(-c2nnc(NCCc3ccccc3)s2)cc1 | > 60 µM | –
2 | COc1cc(/C=C2/SC(=S)N(c3cccnc3)C2=O)ccc1O | 40.6 µM | –
3 | CCOc1cc(-c2ccc(O)c(O)c2)cc(=O)c2c(C)oc(C)c12 | 4.41 µM | –
4 | CN(C)c1ccc(O)c2c1CC1CC3[C@H](N(C)C)C(O)=C(C(N)=O)C(=O)[C@@]3(O)C(O)=C1C2=O (stereo partly drawn) | 1.37 µM | –
5 | CCCCCCn1c(N)c(C(=O)OC)c2nc3ccccc3nc21 | 1.43 µM | –
6 | CCN(CC)CCn1c2ccccc2c2cnc(N)c(C#N)c21 | 18.8 µM | –
7 | Cc1cccc(NC2=NC(=O)/C(=C/c3ccc(O)c(O)c3)S2)c1C | 7.11 µM | –
8 | Cc1cc(NC(c2ccccn2)c2ccc3cccnc3c2O)no1 (stereo not drawn) | 6.45 µM | –
9 | Cc1ccc(C2C(C#N)=C(N)Oc3cc(N)ccc32)cc1 (stereo not drawn) | 26 µM | –
10 | CCOc1ccc(NC(c2ccccn2)c2ccc3cccnc3c2O)cc1 (stereo not drawn) | 4.48 µM | –
11 | O=[N+]([O-])c1cc(C2=NN=C(NCc3ccco3)SC2)ccc1Cl | 6.62 µM | –
12 | CCCCC(CC)CNC(=O)c1ccc(N/N=C2\C(=O)Nc3ccc(Br)cc32)cc1 (stereo not drawn) | > 60 µM | –
13 | CC(=O)Nc1ccc(Nc2nnc(-c3ccc(O)cc3)c3ccccc23)cc1 | > 60 µM | –
14 | CCCCCn1c(N)c(C(=O)OC)c2nc3ccccc3nc21 | 1.03 µM | –
15 | C1=Nc2cccc3cccc(c23)N1 | 12.5 µM | –
16 | COc1ccc(-c2cc(=O)oc3c(O)c(O)ccc23)cc1 | 7.16 µM | –
17 | O=c1cc(-c2ccc(O)cc2)oc2cc(O)c(O)c(O)c12 | 6.61 µM | –
18 | O=c1cc(-c2ccccc2)oc2cc(O)c(O)c(O)c12 | 8.7 µM | –
19 | Oc1ccc(-c2nc3ccc4ccccc4c3c3c2CCC3)cc1O | 28.4 µM | –
20 | N#CC1=C(N)Oc2cc(N)ccc2C1c1cc2cc3c(cc2nc1Cl)OCO3 (stereo not drawn) | 6.48 µM | –
21 | CCn1c(COc2ccccc2)nnc1SCCC(=O)O | > 60 µM | –
22 | CCOc1cccc(=O)c2c(C)n(-c3ccc(C)cc3)c(C)c12 | 3.4 µM | –
23 | CCN(CC)c1ccc(C2Nc3cccc4cccc(c34)N2)c(O)c1 | 8.44 µM | –
24 | c1ccc(-c2ccc(C3=NN=C(NCc4ccco4)SC3)cc2)cc1 | 10.4 µM | –
25 | Cc1cc2c(c(O)c1-c1c(C)cc3c(c1O)/C(=C/NCCCN1CCOCC1)C(=O)C(O)=C3C(C)C)/C(=C/NCCCN1CCOCC1)C(=O)C(O)=C2C(C)C | 16.9 µM | –
26 | CCOC(=O)c1c(N)n(C2CC2)c2nc3ccccc3nc12 | 2.83 µM | –

Row | SMILES | IC50 [1] | other results
27 | C=CCn1c(N)c(C(=O)OC)c2nc3ccccc3nc21 | 0.973 µM | –
28 | Cc1ccc(-c2ccccc2NS(=O)(=O)c2ccc(S(=O)(=O)N3CCCCCC3)cc2)o1 | > 60 µM | IC50 [2]: > 20 µM
29 | Cc1ccc([N+](=O)[O-])c(NC2OC(CO)C(O)C2O)c1 (stereo not drawn) | 12 µM | IC50 [2]: 10.1 to 20 µM
30 | CCOC(=O)c1ccc(CC(=O)c2ccc(O)c(O)c2O)o1 | 7.05 µM | –
31 | O=C(O)c1ccc([C@@H]2Nc3ccc(I)cc3[C@@H]3C=CC[C@@H]32)cc1 | 6.66 µM | –
32 | O=C1Nc2ccc(S(=O)(=O)N3CCCCC3)c3cccc1c23 | > 60 µM | –
33 | Cn1cc(C2=C(c3cn(CCCSC(=N)N)c4ccccc34)C(=O)NC2=O)c2ccccc21 [Ro-31-8220, reference compound] | – | IC50 values of model inhibitors: in good agreement with published data
34 | O=S(=O)(NCCNC/C=C/c1ccc(Br)cc1)c1cccc2cnccc12 [H89, reference compound] | – | IC50 values of model inhibitors: in good agreement with published data
35 | CCN(CC)c1ccc(C(c2c(C)n[nH]c2O)c2c(C)n[nH]c2O)cc1 | 9.93 µM | –
36 | Cc1cccc(-c2nnc(SCC(=O)O)[nH]2)c1 | 1.44 µM | –
37 | Cc1cc2c(C(C)C)c(O)c(O)c(/C=N/CCCN3CCOCC3)c2c(O)c1-c1c(C)cc2c(C(C)C)c(O)c(O)c(/C=N/CCCN3CCOCC3)c2c1O | 10.1 µM | –
38 | O=C(O)CSc1nnc(-c2cccs2)[nH]1 | 4.6 µM | –
39 | N#CC1=C(N)Oc2cc(N)ccc2C1c1cccs1 (stereo not drawn) | 11.8 µM | –
40 | O=C(O)CSc1nnc(-c2ccc(OC(F)(F)F)cc2)[nH]1 | 5.92 µM | –
41 | CCOc1cccc(=O)c2c(C)[nH]c(C)c12 | 2.55 µM | –
42 | Oc1c(C(Nc2ccccn2)c2cccnc2)ccc2cccnc12 (stereo not drawn) | 6.75 µM | –
43 | COc1ccc(-c2cnc(-c3cccnc3)o2)cc1 | > 60 µM | –
44 | Cc1nc2ccccn2c1-c1csc(Nc2ccc(N)cc2)n1 | > 60 µM | –
45 | COCCNC(=O)CN(C(=O)c1snc(C(N)=O)c1N)c1ccccc1 | > 60 µM | –
46 | Nc1ccc2c3c1C(=O)OC3(O)c1ccccc1C2=O (stereo not drawn) | 47 µM | –
47 | NC(=O)c1cc(N)c2c(c1N)C(=O)c1ccccc1C2=O | 12.7 µM | –
48 | CCCCn1c(N)c(C#N)c2nc3ccccc3nc21 | 1.56 µM | –
49 | O=S(=O)(Nc1ccc(-n2cnnn2)cc1)c1ccc(S(=O)(=O)N2CCCCCC2)cc1 | > 60 µM | –
50 | Cc1ccc2nc(NC=O)sc2c1 | > 60 µM | –
51 | CCNC(=S)N(CCO)Cc1cc2cc3c(cc2[nH]c1=O)OCO3 | > 60 µM | –
52 | Nc1ccc(CCc2nc3cc(N)ccc3o2)cc1 | 17.8 µM | –
